The source of these data is a melting point compilation (Tetko et al.).

Molecules are shown by their SMILES.

For orientation: melting point means the temperature, or range, at which the solid turns liquid. Molecule `Nc1cc2c(cc1[N+](=O)[O-])OCC(=O)N2` gave a melting point of 323 to 325 °C. Next, `COc1ccccc1C(N)(C(=O)O)C(F)(F)F` (stereo not given): 97 to 99 °C. Regarding `O=C(O)Cc1csc(-c2cccs2)n1`, the melting point was in the range of 97 to 99 °C.

Regarding `CCOC(=O)C(=O)CC(=O)c1ccc2ccccc2c1`, the melting point lay within 51 to 53 °C.

Take `Clc1cccc2c(CBr)csc12`: the melting point was in the range of 84 to 86 °C. For `O=C1CC(=O)Nc2ccccc2N1` the value was 383 to 385 °C; for `O=C(O)C1CCN(C(=O)c2cccc3ccccc23)CC1`, 190 to 192 °C. Next, `Cc1ccc(S(=O)(=O)OI(O)c2ccccc2)cc1`: 134 to 136 °C; `NC(=O)COc1ccccc1C(=O)O`: 199 to 201 °C.

With `CC1(c2ccc(I)cc2)NC(=O)NC1=O` (stereo not given), the melting point is 265 to 267 °C. As to `Fc1ccccc1-c1nnc2ccc(Cl)nn12`, the melting point is 164 to 166 °C. Regarding `NC(C(=O)O)c1ccc2ccccc2c1` (stereo not given), the melting point lay within 251 to 253 °C. Next, `N#CC1=C(N)N2Cc3ccccc3CC2C1=O` (stereo not given): 307 to 309 °C; `O=C(O)CCC(=O)c1cc(Cl)sc1Cl`: 117 to 119 °C. Next, `O=C(O)CCCOc1ccc(Br)cc1`: 130 to 132 °C; `COc1nc(C(=O)O)cc2ccccc12`: 184 to 186 °C; `Cc1cc[nH]c(=O)c1C(N)=O`: 235 to 237 °C. Next, `CCOC(=O)c1[nH]cnc1N`: 129 to 131 °C; `Nc1cccc2oc(C(F)(F)F)nc12`: 49 to 51 °C. For the molecule `NNC(=O)CN1C(=O)COc2ccccc21`, the melting point fell in the range of 152 to 154 °C. Next, `COc1cc(NC(C)=O)ccc1C(C)=O`: 130 to 132 °C. On to `CC(=O)Nc1cccc(I)c1`, for which the melting point lay within 123 to 125 °C.

`Cc1nc2s[nH]c(=O)c2c(C)c1C` displayed a melting point of 236 to 238 °C. `c1cnn(-c2ccc(N3CCNCC3)nn2)c1` returned a melting point of 161 to 163 °C.

Regarding `O=C(O)COc1ccc(C(=O)c2ccccc2)cc1`, the melting point fell in the range of 152 to 156 °C.

With `O=C1CCCc2nc(-c3ccc(F)cc3)sc21`, the melting point lay within 142 to 144 °C. For `COC(=O)c1cc(F)cc(I)c1N` the value was 52 to 54 °C; for `NC(=S)c1cccnc1N`, 124 to 126 °C; for `Cc1ncsc1-c1nc(CCl)no1`, 82 to 84 °C. Next, `COC(=O)CNc1ccncc1[N+](=O)[O-]`: 104 to 106 °C; `O=C1COc2ncc(C(=O)O)cc2N1`: 319 to 321 °C; `CC(C)(C)OC(=O)NC1(CC(=O)O)CCC1`: 126 to 128 °C. Next, `CC(C)c1nc(C(=O)O)nn1-c1cccc(F)c1`: 93 to 95 °C. `Nc1cnc(Cc2ccc(F)cc2)nc1` gave a melting point of 123 to 125 °C. Next, `O=C(Nc1ccccc1)C(Cl)C(=O)c1ccccc1` (stereo not given): 113 to 115 °C.

Consider `O=C(O)c1[nH]c2ccccc2c1Cl`, for which the melting point was 179 to 181 °C. For `COc1ccc(C(=O)O)cc1S(=O)(=O)NC1CCCC1` the value was 216 to 218 °C. For `O=C(O)c1ccc(NC(=O)c2ccco2)cc1` the value was 132 to 134 °C.

For the molecule `N#CCc1ccccc1C(=O)O`, the melting point was 106 to 108 °C. Next, `Cc1cc(C)n2nc(O)cc2n1`: 241 to 243 °C; `Cc1cc(S)n2c(nc3ccccc32)c1C#N`: 198 to 200 °C. For `CC(=O)c1cccc(S(=O)(=O)N2CCC(C(=O)O)CC2)c1` the value was 122 to 124 °C; for `Clc1nc(-c2cccs2)nc2ccccc12`, 123 to 125 °C; for `Cc1nc(-c2ccc(Br)cc2)n[nH]1`, 190 to 192 °C. For `Cc1ccc(NC(=O)c2cc(Cl)ccc2Cl)c(C(=O)O)c1` the value was 242 to 244 °C; for `CCc1nc(C(=O)O)nn1-c1ccccc1Cl`, 164 to 166 °C; for `Nc1cc(N2CCCC2=O)ccc1F`, 106 to 108 °C.

Molecule `CCn1nc(C(F)(F)F)c(C(=O)O)c1C(F)(F)F` registered a melting point of 89 to 91 °C. Molecule `Nc1cc(-c2ccc(F)cc2F)no1` showed a melting point of 110 to 112 °C.

In turn, `O=C1CCc2c(Br)cccc21` returned a melting point of 95 to 99 °C. Next, `O=C(O)c1ccc(OCc2cscn2)cc1`: 191 to 193 °C; `CC(Cc1nc2ccccc2s1)(C(=O)O)c1ccccc1` (stereo not given): 193 to 195 °C. Next, `NNC(=O)Cc1nc2ccccc2[nH]1`: 177 to 181 °C; `N#CC1(N)CCN(Cc2ccccc2)CC1`: 67 to 69 °C.

Take `S=C=Nc1cccc2ncccc12`: the melting point lay within 60 to 62 °C.

Consider `CCc1cc2c(=O)n(N)cnc2s1`, for which the melting point lay in the range of 137 to 139 °C. `O=C1C2C3CC4C2C(=O)C2C1C3C42` (stereo not given) registered a melting point of 240 to 242 °C. For `O=C(O)C1(C(=O)NC2CC2)CCC1` the value was 139 to 141 °C; for `COc1ccc(Cl)cc1NS(=O)(=O)c1cccc(C(=O)O)c1`, 155 to 157 °C; for `O=C(O)CCc1cccc(F)c1F`, 106 to 108 °C. For the molecule `CS(=O)(=O)c1cc(Cl)c(C(=O)O)c(Cl)c1`, the melting point was 144 to 146 °C. `Cc1cc2ncc3c(n2n1)C(=O)OCC3` registered a melting point of 200 to 202 °C. `CCN(CC)C(=O)c1sc2nc(CCl)[nH]c(=O)c2c1C` returned a melting point of 174 to 176 °C.

The molecule `NC(=O)c1ccc(CCl)c([N+](=O)[O-])c1` showed a melting point of 115 to 117 °C. Next, `Nc1ccc(CNC(=O)c2ccc(C(F)(F)F)cc2)cc1`: 163 to 165 °C; `CC(Oc1cccc(C=O)c1)C(=O)O` (stereo not given): 65 to 67 °C; `O=C(O)CNS(=O)(=O)c1ccc2c(c1)nnn2O`: 229 to 231 °C.

`CN(C)c1nc[nH]c(=O)c1N` gave a melting point of 158 to 160 °C.

The molecule `O=C(O)CNc1ccccc1Cl` came in with a melting point of 173 to 175 °C.

The molecule `Nc1nc2cc(Cc3ccccc3)ccc2o1` returned a melting point of 151 to 153 °C. Next, `CN(C)C(=O)c1cccc(C(=O)O)c1`: 134 to 136 °C; `CC1CCN(c2cc(C(=O)O)ccn2)C1` (stereo not given): 195 to 197 °C. Next, `CC(C)(C)OC(=O)NCc1ccc(C(=O)O)cc1`: 164 to 166 °C.

`COc1ccc(S(=O)(=O)NC(C)(C)C)cc1N`: the melting point is 119 to 121 °C. For `Cc1cc(S(N)(=O)=O)cc(N)c1C` the value was 159 to 161 °C; for `Cn1nc(Br)c2c(NN)ncnc21`, 198 to 200 °C; for `COc1ccc(-c2nn(-c3ccccc3)cc2C=CC(=O)O)cc1`, 238 to 240 °C. Next, `O=C(O)CN1C(=O)C2C3C=CC(C3)C2C1=O` (stereo not given): 146 to 148 °C.

Molecule `O=C(O)C1CCCCN1C(=O)C1CCCO1` (stereo not given) had a melting point of 116 to 118 °C. Next, `CN(C)CC(O)Cn1cc(N)cn1` (stereo not given): 68 to 70 °C. For `ClCc1cc2c(cc1Br)OCO2` the value was 62 to 66 °C. The molecule `O=C(Nc1ccc(C(=O)O)c(O)c1)c1cccc(Br)c1` came in with a melting point of 239 to 241 °C. Next, `CC(C)(C)OC(=O)Nc1snnc1C(=O)O`: 139 to 141 °C; `CCc1n[nH]c(=O)c(C(=O)O)c1CC`: 154 to 156 °C; `CC(C)(C)OC(=O)Nc1cc(N)c(F)cc1F`: 117 to 119 °C.

Turning to `OCc1nc2ccccc2n1C(F)F`, the melting point lay within 150 to 152 °C. Turning to `Nc1ccc(S(=O)C(F)F)cc1` (stereo not given), the melting point fell in the range of 83 to 85 °C. Next, `O=C(O)c1cc(-c2ccccc2F)nc2onc(C3CC3)c12`: 182 to 184 °C.

Molecule `Cc1c(C(=O)O)nnn1-c1ccc2c(c1)OCCO2` yielded a melting point of 189 to 191 °C. Next, `O=C(O)c1ccc(S(=O)(=O)Cl)cc1F`: 142 to 144 °C; `Cc1sc(N)nc1-c1ccc2c(c1)CCCO2`: 209 to 211 °C.

Regarding `NC(=O)NCc1ccccc1F`, the melting point was 147 to 149 °C.

With `COc1cc(C=O)c2c(c1)CC(C)O2` (stereo not given), the melting point is 71 to 73 °C.

In turn, `Cc1nc(-c2ccc(N)cc2)oc1C` registered a melting point of 150 to 152 °C. Regarding `O=Cc1c(O)ccc([N+](=O)[O-])c1Cl`, the melting point fell in the range of 118 to 120 °C. On to `O=C(O)C1=NN(c2ccccc2)C(=O)CC1`, for which the melting point was in the range of 169 to 171 °C. With `CCc1c(C(C)(C)C)noc1N`, the melting point lay within 75 to 77 °C.

`Cc1ccc2c(CCN)c[nH]c2c1` came in with a melting point of 139 to 141 °C.

With `Cc1ccc(C(C)C)cc1OCC(=O)O`, the melting point was 153 to 155 °C. For `CS(=O)(=O)CCCBr` the value was 35 to 37 °C; for `CC1(C)NC(=O)N(c2cccc(C#N)c2)C1=O`, 159 to 161 °C; for `O=C(O)c1ccc(S(=O)(=O)Nc2ccccc2Cl)cc1`, 111 to 113 °C. Next, `Cc1cc(C)nc(-n2cc(C(=O)O)c(C(C)C)n2)n1`: 171 to 173 °C. For `CC(O)(CN)c1cccs1` (stereo not given) the value was 55 to 57 °C; for `CN(C)C(=O)Sc1ccc2c(c1)CCCC2=O`, 99 to 101 °C; for `O=C(c1ccsc1)N1CCCNCC1`, 98 to 100 °C. Regarding `Nc1cccc(NS(=O)(=O)c2ccc(Cl)cc2)c1`, the melting point was 112 to 114 °C. `O=C1CCCc2cc(C(=O)CCl)ccc2N1` gave a melting point of 154 to 156 °C.

On to `COc1cncc(C=CC(=O)O)c1`, for which the melting point was in the range of 172 to 174 °C. For `Cc1cc(N)nn1-c1ccc(Cl)cc1` the value was 100 to 102 °C; for `Nc1ccc2[nH]c(CCN3CCOCC3)nc2c1`, 201 to 203 °C. Turning to `Cc1cc(C(=O)NCC(=O)O)c(C)o1`, the melting point lay in the range of 179 to 181 °C. In turn, `Cc1nc2ccc(Br)cc2c(Cl)c1C` registered a melting point of 99 to 101 °C. Regarding `O=C1COc2cc(S)c(Cl)cc2N1`, the melting point was in the range of 256 to 258 °C. For `Cn1cnnc1SCc1ccc(C(=O)O)o1` the value was 179 to 181 °C; for `Nc1ccc(F)c(NC(=O)c2ccsc2)c1`, 118 to 120 °C; for `CC(C)n1cnnc1S`, 116 to 118 °C. For `O=C(CCl)c1ccc[nH]1` the value was 114 to 116 °C. As for `CC(C)S(=O)(=O)Nc1ccc(C(=O)O)cc1`, the melting point was 179 to 181 °C.

The molecule `Cn1cc(Nc2cccc(C(=O)O)c2)cn1` displayed a melting point of 218 to 220 °C.
